Measurements as given in publication PMC10786919, “Design-rules for stapled peptides with in vivo activity and their application to Mdm2/X antagonists” (Nature Communications, 2024).
Values after ≈ are worked out from the molar mass of the structure shown. Read-outs that look alike come from different tables or passages of the source. Positions of bridges follow the written chain, without caps; N, C: chain ends. Non-standard residues stand in square brackets, D forms with d. Residues, ends and D or L forms follow the SMILES beside them. Phe(3,4-Cl2) = N[C@@H](Cc1ccc(Cl)c(Cl)c1)C(=O)O; Lys(N3) = [N-]=[N+]=NCCCC[C@H](N)C(=O)O; R8 = C=CCCCCCC[C@@](C)(N)C(=O)O; Cba = N[C@@H](CC1CCC1)C(=O)O; S5 = C=CCCC[C@](C)(N)C(=O)O; βAla = NCCC(=O)O

Legend:
HCT116 cells = assay: Lactate dehydrogenase (LDH) release assay; format: cell-based
Outline: (§1)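 Read-out was lactate dehydrogenase release, reflecting loss of membrane integrity, in reporter-engineered HCT116 cells (p53-responsive β-lactamase) seeded at 8000 cells per well. Final DMSO was 0.5%, and reported values are geometric means from three or more biological repeats.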

[1] = Lactate dehydrogenase (LDH) release assay; format: cell-based
Outline: as §1

in vitro = assay: in vitro
Outline: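 Azido-peptide permeability was read as loss of NanoBRET signal (donor 450 nm, acceptor 610 nm) after adding NanoBret618-azide at 10 μM final.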

[2] = Experimental LogD (partition coefficient); settings: for logD: Partition Coeff LogD
[3] = Solubility assay (kinetic solubility, PBS pH 7); format: physicochemical; settings: pH 7, PBS; for solubility kinetic: pH 7, aqueous buffer, kinetic from dmso stock, read-out: Solubility
Outline: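 Values derive from peak-area ratios of sample versus a 100 µM standard, scaled by that standard's concentration.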

[4] = Nanoclick permeability assay EC50
[5] = 0% FBS 4Hr, read-out: LDH: Cytotoxicity assay: EC50
[6] = 10% FBS 4Hr, read-out: LDH: Cytotoxicity assay: EC50

| Compound | LDH: Cytotoxicity assay: % Effect (HCT116 cells) [%] | EC50 ([1]; LDH: Cytotoxicity assay: EC50) [µM] | cell entry EC50 (in vitro; [4]) [nM] | logD ([2]; not stated) | EPSA (physchem) [A^2] | solubility kinetic [3] [µM] | LDH: Cytotoxicity assay: % Effect (HCT116 cells; 0% FBS 4Hr) [%] | LDH: Cytotoxicity assay: % Effect (HCT116 cells; 10% FBS 4Hr) [%] | EC50 [1, 5] [µM] | EC50 [1, 6] [µM] | cell entry EC50 (in vitro) [nM] | logD ([2]; experimental) | Partition Coeff LogD [2] | Solubility [3] | LDH: Cytotoxicity assay: % Effect (HCT116 cells; 0% FBS 16Hr) [%] | EC50 ([1]; 0% FBS 16Hr, read-out: LDH: Cytotoxicity assay: EC50) [µM] |
| --- | --- | --- | --- | --- | --- | --- | --- | --- | --- | --- | --- | --- | --- | --- | --- | --- |
| CC(=O)N[C@@H](CCCCN=[N+]=[N-])C(=O)N[C@@H](CO)C(=O)NCC(=O)N[C@@H](CO)C(=O)N[C@@H](CC(C)C)C(=O)N[C@H](C(=O)N[C@@H](Cc1ccccc1)C(=O)N[C@]1(C)CCCCCCC=CCCC[C@@](C)(C(=O)N[C@@H](CO)C(=O)N[C@@H](C)C(=O)N[C@@H](C)C(N)=O)NC(=O)[C@H](CC2CCC2)NC(=O)[C@H](CCC(N)=O)NC(=O)[C@H](C)NC(=O)[C@H](Cc2c[nH]c3ccccc23)NC(=O)[C@H](Cc2ccc(O)cc2)NC(=O)[C@H](CCC(=O)O)NC1=O)[C@@H](C)O [MP-619] | 11.42 | > 50.6 | 630 | 2.67 | 227 | 110 (≈ 235 µg/mL) |  |  |  |  |  |  |  |  |  |  |
| CC(=O)N[C@@H](CCCCN=[N+]=[N-])C(=O)NCCC(=O)N[C@@H](CO)C(=O)N[C@H](C(=O)N[C@@H](Cc1ccccc1)C(=O)N[C@]1(C)CCCCCCC=CCCC[C@@](C)(C(=O)N[C@@H](CO)C(=O)N[C@@H](CO)C(=O)N[C@@H](CO)C(N)=O)NC(=O)[C@H](CC2CCC2)NC(=O)[C@H](CCC(N)=O)NC(=O)[C@H](CO)NC(=O)[C@H](Cc2c[nH]c3ccccc23)NC(=O)[C@H](Cc2ccc(O)cc2)NC(=O)[C@H](CO)NC1=O)[C@@H](C)O [MP-667] (Ac-[Lys(N3)][βAla]STF[R8]SYWSQ[Cba][S5]SSS-NH2; staple 6-13) | 2.286 | > 50.6 | 2230 | 2.5 | 208 | 2 (≈ 3.9 µg/mL) |  |  |  |  |  |  |  |  |  |  |
| CC(=O)N[C@@H](CCCCN=[N+]=[N-])C(=O)NCCC(=O)NCC(=O)N[C@H](C(=O)N[C@@H](Cc1ccccc1)C(=O)N[C@]1(C)CCCCCCC=CCCC[C@@](C)(C(=O)N[C@@H](CO)C(=O)N[C@@H](C)C(=O)N[C@@H](C)C(N)=O)NC(=O)[C@H](CC2CCC2)NC(=O)[C@H](CCC(N)=O)NC(=O)CNC(=O)[C@H](Cc2c[nH]c3ccccc23)NC(=O)[C@H](Cc2ccc(O)cc2)NC(=O)CNC1=O)[C@@H](C)O [MP-692] (Ac-[Lys(N3)][βAla]GTF[R8]GYWGQ[Cba][S5]SAA-NH2; staple 6-13) | 2.18 | > 50.6 | 1390 | 2.73 | 200 | 2 (≈ 3.66 µg/mL) |  |  |  |  |  |  |  |  |  |  |
| CC(=O)N[C@@H](CCCCN=[N+]=[N-])C(=O)NCCC(=O)N[C@@H](CC(C)C)C(=O)N[C@H](C(=O)N[C@@H](Cc1ccccc1)C(=O)N[C@]1(C)CCCCCCC=CCCC[C@@](C)(C(=O)N[C@@H](CO)C(=O)N[C@@H](C)C(=O)N[C@@H](C)C(N)=O)NC(=O)[C@H](CC2CCC2)NC(=O)[C@H](CCC(N)=O)NC(=O)[C@H](CC(C)C)NC(=O)[C@H](Cc2c[nH]c3ccccc23)NC(=O)[C@H](Cc2ccc(O)cc2)NC(=O)[C@H](CC(C)C)NC1=O)[C@@H](C)O [MP-693, AZIDE-ATSP-7041 (E5L, A8L)] (Ac-[Lys(N3)][βAla]LTF[R8]LYWLQ[Cba][S5]SAA-NH2; staple 6-13) |  |  |  | 4.68 | 196 | < 1 | -2.781 | 12.6 | > 50.6 | > 50 | 290 | 2.92 |  |  |  |  |
| CC(=O)N[C@@H](CCCCN=[N+]=[N-])C(=O)NCCC(=O)N[C@@H](CC(C)C)C(=O)N[C@H](C(=O)N[C@@H](Cc1ccccc1)C(=O)N[C@]1(C)CCCCCCC=CCCC[C@@](C)(C(=O)N[C@@H](CO)C(=O)N[C@@H](C)C(=O)N[C@@H](C)C(N)=O)NC(=O)[C@H](CC2CCC2)NC(=O)[C@H](CCC(N)=O)NC(=O)[C@H](C)NC(=O)[C@H](Cc2ccc(Cl)c(Cl)c2)NC(=O)[C@H](Cc2ccc(O)cc2)NC(=O)[C@H](CCC(=O)O)NC1=O)[C@@H](C)O [MP-765] (Ac-[Lys(N3)][βAla]LTF[R8]EY[Phe(3,4-Cl2)]AQ[Cba][S5]SAA-NH2; staple 6-13) | 2.873 | > 50.6 | 1830 |  | 199 |  |  |  |  |  |  |  | Poorly Behaved | Poorly Behaved |  |  |
| CC(=O)N[C@@H](CCCCN=[N+]=[N-])C(=O)NCCC(=O)N[C@@H](CC(C)C)C(=O)N[C@H](C(=O)N[C@@H](CC1CCC1)C(=O)N[C@]1(C)CCCCCCC=CCCC[C@@](C)(C(=O)N[C@@H](CO)C(=O)N[C@@H](C)C(=O)N[C@@H](C)C(N)=O)NC(=O)[C@H](Cc2c[nH]c3ccccc23)NC(=O)[C@H](CCC(N)=O)NC(=O)[C@H](C)NC(=O)[C@H](Cc2ccccc2)NC(=O)[C@H](Cc2ccc(O)cc2)NC(=O)[C@H](CCC(=O)O)NC1=O)[C@@H](C)O [MP-791] (Ac-[Lys(N3)][βAla]LT[Cba][R8]EYFAQW[S5]SAA-NH2; staple 6-13) | 45.16 | 34.6 | > 10000 | 1.34 | 197 | 28 (≈ 55.2 µg/mL) |  |  |  |  |  |  |  |  |  |  |
| CC(=O)N[C@@H](CCCCN=[N+]=[N-])C(=O)NCCC(=O)N[C@@H](CC(C)C)C(=O)N[C@H](C(=O)N[C@@H](Cc1ccccc1)C(=O)N[C@]1(C)CCCCCCC=CCCC[C@@](C)(C(=O)NCC(=O)N[C@@H](C)C(=O)N[C@@H](C)C(N)=O)NC(=O)[C@H](CC2CCC2)NC(=O)[C@H](CCC(N)=O)NC(=O)[C@H](C)NC(=O)[C@H](Cc2c[nH]c3ccccc23)NC(=O)[C@H](Cc2ccc(O)cc2)NC(=O)[C@H](CCC(=O)O)NC1=O)[C@@H](C)O [MP-798] (Ac-[Lys(N3)][βAla]LTF[R8]EYWAQ[Cba][S5]GAA-NH2; staple 6-13) |  |  |  | 2.79 | 212 | 80 (≈ 155 µg/mL) | 16.01 | 16.43 | > 50.6 | > 50 | 82.9 |  |  |  | 1.68 |  |
| CC(=O)N[C@@H](CCCCN=[N+]=[N-])C(=O)NCCC(=O)N[C@@H](CC(C)C)C(=O)N[C@H](C(=O)N[C@@H](Cc1ccccc1)C(=O)N[C@]1(C)CCCCCCC=CCCC[C@@](C)(C(=O)N[C@@H](CO)C(=O)N[C@@H](C)C(=O)N[C@@H](C)C(N)=O)NC(=O)[C@H](C)NC(=O)[C@H](CCC(N)=O)NC(=O)[C@H](C)NC(=O)[C@H](Cc2c[nH]c3ccccc23)NC(=O)[C@H](Cc2ccc(O)cc2)NC(=O)[C@H](CCC(=O)O)NC1=O)[C@@H](C)O [MP-894, AZIDE-ATSP-7041 (CBA10 TO A)] (Ac-[Lys(N3)][βAla]LTF[R8]EYWAQA[S5]SAA-NH2; staple 6-13) |  |  |  | 2.59 | 198 | 93 (≈ 178 µg/mL) | 3.381 |  | > 50 |  | 1330 |  |  |  | 18.53 | > 50 |
| CC(=O)N[C@@H](CCCCN=[N+]=[N-])C(=O)NCCC(=O)N[C@@H](CC(C)C)C(=O)N[C@H](C(=O)N[C@@H](Cc1ccccc1)C(=O)N[C@]1(C)CCCCCCC=CCCC[C@@](C)(C(=O)N[C@@H](CO)C(=O)N(C)[C@@H](C)C(=O)N[C@@H](C)C(N)=O)NC(=O)[C@H](CC2CCC2)NC(=O)[C@H](CCC(N)=O)NC(=O)[C@H](C)NC(=O)[C@H](Cc2c[nH]c3ccccc23)NC(=O)[C@H](Cc2ccc(O)cc2)NC(=O)[C@H](CCC(=O)O)NC1=O)[C@@H](C)O [MP-3353] | 1.89 | > 50.6 | 232 | 2.67 | 202 | 33 (≈ 65.5 µg/mL) |  |  |  |  |  |  |  |  |  |  |
| CC(=O)N[C@@H](CCCCN=[N+]=[N-])C(=O)NCCC(=O)N[C@@H](CC(C)C)C(=O)N[C@H](C)C(=O)N[C@@H](Cc1ccccc1)C(=O)N[C@]1(C)CCCCCCC=CCCC[C@@](C)(C(=O)N[C@@H](CO)C(=O)N[C@@H](C)C(=O)N[C@@H](C)C(N)=O)NC(=O)[C@H](CC2CCC2)NC(=O)[C@H](CCC(N)=O)NC(=O)[C@H](C)NC(=O)[C@H](Cc2c[nH]c3ccccc23)NC(=O)[C@H](Cc2ccc(O)cc2)NC(=O)[C@H](CCC(=O)O)NC1=O [MP-7471] (Ac-[Lys(N3)][βAla]L[dA]F[R8]EYWAQ[Cba][S5]SAA-NH2; staple 6-13) | 0.465 | > 50 | > 10000 | 2.95 | 229 | 93.5 (≈ 181 µg/mL) |  |  |  |  |  |  |  |  |  |  |
